The values that follow come from patent publication US9534016B2, “Netrin loop peptide mimetics and uses thereof” (Buck Institute for Research on Aging, priority 2011, dated 2017).

The test system of this experiment is ERK phosphorylation associated with APP based cell signaling. Put plainly: ERK phosphorylation, Western blot, B103 cells co-transfected with APP. From the text:
This effect is not seen with cyclic peptide-2 or cyclic peptide-3. […] Cyclic peptide-1 is APP specific
ERK phosphorylation is associated with cell signaling. […] This assay was based on a western blot analysis.

In the case of C-P-H-F-C [cyclic peptide-2], the ERK phosphorylation entry (Western blot, APP cells (B103 co-transfected with APP), cyclic peptide-1 at 21 uM) was “not seen”. The “modulate ERK phosphorylation and/or switch APP processing from aberrant to normal” value (cyclized loop peptides prepared and tested) is on record as “shown to modulate ERK phosphorylation and/or to switch APP processing from aberrant to normal”.
